For one compound, IC50 results are on record in PMC8105715, “Modeling of full-length Piezo1 suggests importance of the proximal N-terminus for dome structure” (Biophysical Journal, 2021).

The assay deals with T1, human Piezo1 (Homo sapiens, UniProt Q92508).
T1 construct: stably expressed in HEK 293 TREx cells, tetracycline-inducible (P1 HEK TREx); homotrimer
The assay is described as follows: fura-2 intracellular Ca2+ plate-reader assay, inhibition of Yoda1-evoked response. The class given is cell-based. To be noted: unreliable (estimated; limited solubility); 5 uM Yoda1; cells pretreated 30 min at 37 C with cholesterol-MbetaCD complex; nominal bath concentration; site not shown, may act through membrane; pH 7.4.

T1 sequence (Q92508 whole entry): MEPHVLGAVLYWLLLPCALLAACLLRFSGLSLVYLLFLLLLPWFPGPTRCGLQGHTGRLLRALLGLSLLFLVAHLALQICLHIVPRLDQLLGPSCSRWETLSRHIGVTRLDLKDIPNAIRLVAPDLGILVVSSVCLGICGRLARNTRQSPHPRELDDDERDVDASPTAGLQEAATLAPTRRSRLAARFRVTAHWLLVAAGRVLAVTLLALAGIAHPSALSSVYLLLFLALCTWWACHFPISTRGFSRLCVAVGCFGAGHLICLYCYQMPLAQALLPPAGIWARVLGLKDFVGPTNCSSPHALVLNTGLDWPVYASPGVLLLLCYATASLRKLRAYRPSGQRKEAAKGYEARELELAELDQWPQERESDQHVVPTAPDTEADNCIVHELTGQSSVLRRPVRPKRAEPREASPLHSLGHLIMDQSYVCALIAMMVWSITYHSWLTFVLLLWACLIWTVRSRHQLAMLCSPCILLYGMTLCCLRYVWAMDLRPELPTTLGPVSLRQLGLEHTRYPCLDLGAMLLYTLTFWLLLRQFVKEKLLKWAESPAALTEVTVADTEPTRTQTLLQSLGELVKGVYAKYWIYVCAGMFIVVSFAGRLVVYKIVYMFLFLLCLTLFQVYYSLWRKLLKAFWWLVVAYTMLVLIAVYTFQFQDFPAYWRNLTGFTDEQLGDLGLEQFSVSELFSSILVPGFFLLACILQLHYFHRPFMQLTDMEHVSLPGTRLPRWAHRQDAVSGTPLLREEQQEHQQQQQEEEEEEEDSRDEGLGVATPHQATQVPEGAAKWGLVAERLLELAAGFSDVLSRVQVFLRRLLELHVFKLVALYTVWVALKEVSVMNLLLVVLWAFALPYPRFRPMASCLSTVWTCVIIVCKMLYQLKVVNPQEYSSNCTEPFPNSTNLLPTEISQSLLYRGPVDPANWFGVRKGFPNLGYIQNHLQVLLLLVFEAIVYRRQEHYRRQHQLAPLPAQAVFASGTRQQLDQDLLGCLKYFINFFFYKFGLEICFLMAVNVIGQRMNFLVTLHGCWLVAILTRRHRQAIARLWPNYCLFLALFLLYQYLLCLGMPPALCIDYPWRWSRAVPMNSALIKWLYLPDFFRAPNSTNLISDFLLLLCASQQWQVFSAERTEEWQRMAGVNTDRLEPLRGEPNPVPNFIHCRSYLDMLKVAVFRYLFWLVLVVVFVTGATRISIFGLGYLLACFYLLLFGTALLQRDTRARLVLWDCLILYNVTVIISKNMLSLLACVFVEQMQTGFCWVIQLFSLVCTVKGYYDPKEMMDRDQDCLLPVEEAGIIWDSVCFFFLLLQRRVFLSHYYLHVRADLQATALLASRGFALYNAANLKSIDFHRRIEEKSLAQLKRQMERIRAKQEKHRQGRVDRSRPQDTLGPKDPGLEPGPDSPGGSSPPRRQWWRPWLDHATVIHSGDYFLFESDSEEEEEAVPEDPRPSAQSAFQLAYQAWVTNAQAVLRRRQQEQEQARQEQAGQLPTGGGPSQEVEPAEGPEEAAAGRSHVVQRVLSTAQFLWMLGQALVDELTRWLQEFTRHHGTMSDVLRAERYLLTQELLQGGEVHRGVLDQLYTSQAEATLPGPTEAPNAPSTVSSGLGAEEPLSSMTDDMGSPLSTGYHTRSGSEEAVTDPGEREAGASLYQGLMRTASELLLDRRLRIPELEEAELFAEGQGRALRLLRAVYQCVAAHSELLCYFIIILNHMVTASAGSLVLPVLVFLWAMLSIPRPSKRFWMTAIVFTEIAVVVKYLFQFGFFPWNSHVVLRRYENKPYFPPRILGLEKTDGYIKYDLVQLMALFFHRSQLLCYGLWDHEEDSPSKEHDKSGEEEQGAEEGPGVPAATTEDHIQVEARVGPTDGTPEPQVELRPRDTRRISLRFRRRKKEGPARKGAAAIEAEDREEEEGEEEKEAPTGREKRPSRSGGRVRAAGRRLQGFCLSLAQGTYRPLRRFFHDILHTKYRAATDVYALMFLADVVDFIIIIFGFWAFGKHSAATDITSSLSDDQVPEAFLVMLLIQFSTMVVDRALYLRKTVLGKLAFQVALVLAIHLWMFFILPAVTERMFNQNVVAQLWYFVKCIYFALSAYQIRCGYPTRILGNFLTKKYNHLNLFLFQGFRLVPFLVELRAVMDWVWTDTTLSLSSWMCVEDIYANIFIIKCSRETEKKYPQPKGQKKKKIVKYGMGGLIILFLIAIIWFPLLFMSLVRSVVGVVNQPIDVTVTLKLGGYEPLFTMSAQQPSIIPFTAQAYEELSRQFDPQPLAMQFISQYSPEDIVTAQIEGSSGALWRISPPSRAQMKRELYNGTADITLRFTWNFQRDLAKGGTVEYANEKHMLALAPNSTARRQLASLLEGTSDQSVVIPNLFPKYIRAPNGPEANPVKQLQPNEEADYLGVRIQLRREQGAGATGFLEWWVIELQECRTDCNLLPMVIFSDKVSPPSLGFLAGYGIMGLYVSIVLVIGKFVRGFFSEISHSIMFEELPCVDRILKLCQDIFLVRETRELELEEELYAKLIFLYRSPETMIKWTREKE

Consider `CC(C)CCC[C@@H](C)[C@H]1CC[C@H]2[C@@H]3CC=C4C[C@@H](O)CC[C@]4(C)[C@H]3CC[C@]12C` [cholesterol], for which the IC50 is 150 µM.
